The source made the active and inactive calls. No cut-off for these calls is given here.
How the values were obtained:
[1] = Acute toxicity in Sprague-Dawley rat assessed as liver damage at 500 to 2000 mg/kg, po measured every 2 days by H and E staining based analysis; format: organism-based; settings: in vivo, 48 h, dose 500-2000 mg/kg, time 2 day
[2] = Acute toxicity in Sprague-Dawley rat assessed as lung damage at 500 to 2000 mg/kg, po measured every 2 days by H and E staining based analysis; format: organism-based; settings: in vivo, 48 h, dose 500-2000 mg/kg, time 2 day
A549 [3] = assay: Induction of apoptosis in human A549 cells assessed as viable cells at 1 uM incubated for 24 hrs by Annexin V-FITC/PI staining based flow cytometry analysis (reference value: 91.3%); format: functional; settings: read-out: Activity
A549 [4] = assay: Induction of cell cycle arrest in human A549 cells assessed as accumulation of cells at G1 phase at 1 uM measured for 24 hrs by PI/Rnase staining based flow cytometry (reference value: 75.2 %); format: functional
NCI-H1975 [5] = assay: Induction of cell cycle arrest in human NCI-H1975 cells assessed as accumulation of cells at G1 phase at 0.5 uM measured for 24 hrs by PI/Rnase staining based flow cytometry (reference value: 79.2 %); format: functional
NCI-H1975 [6] = assay: Antiproliferative activity against MET knockdown human NCI-H1975 cells assessed as inhibition of cell growth by CCK-8 assay; format: functional, cell-based
[7] = Toxicity in BALB/c mouse xenografted with human A549 cells assessed as spleen damage at 20 mg/kg, po administered once a day and measured after 40 days by H and E staining based analysis; format: organism-based; settings: in vivo, 960 h, time 40 day
NCI-H1975 [8] = assay: Induction of apoptosis in human NCI-H1975 cells assessed as late apoptotic cells at 0.5 uM incubated for 24 hrs by Annexin V-FITC/PI staining based flow cytometry analysis (reference value: 2.27 %); format: functional
BaF3 [9] = assay: Antiproliferative activity against mouse BaF3 cells harboring TPR-MET D1228N mutant incubated for 24 hrs by CCK-8 assay; format: functional, cell-based; settings: BaF3, 24 h
A549 [10] = assay: Induction of cell cycle arrest in human A549 cells assessed as accumulation of cells at G2 phase at 2 uM measured for 24 hrs by PI/Rnase staining based flow cytometry (reference value: 13.4 %); format: functional
Quadruplex DNA [11] = assay: Binding affinity to c-MET G4-quadruplex DNA (unknown origin) assessed as change in melting temperature
[12] = Toxicity in BALB/c mouse xenografted with human A549 cells assessed as body weight loss at 40 mg/kg, po administered once a day and measured after 20 days; format: organism-based; settings: in vivo, 480 h, time 20 day
A549 [13] = assay: Induction of cell cycle arrest in human A549 cells assessed as accumulation of cells at G1 phase at 2 uM measured for 24 hrs by PI/Rnase staining based flow cytometry (reference value: 75.2 %); format: functional
A549 [14] = assay: Downregulation of c-Met expression in human A549 cells incubated for 72 hrs by Western blot analysis; format: functional, cell-based; settings: dose <= 1000.0 nM
[15] = Toxicity in BALB/c mouse xenografted with human A549 cells assessed as lung damage at 20 mg/kg, po administered once a day and measured after 20 days by H and E staining based analysis; format: organism-based; settings: in vivo, 480 h, time 20 day
NCI-H1975 [16] = assay: Antiproliferative activity against human NCI-H1975 cells assessed as inhibition of cell growth incubated for 3 days by CCK-8 assay; format: functional, cell-based; settings: time 3.0 day
NCI-H1975 [17] = assay: Induction of apoptosis in human NCI-H1975 cells assessed as necrotic cells at 1 uM incubated for 24 hrs by Annexin V-FITC/PI staining based flow cytometry analysis (reference value: 7.33 %); format: functional
NCI-H1975 [18] = assay: Induction of cell cycle arrest in human NCI-H1975 cells assessed as accumulation of cells at G2 phase at 1 uM measured for 24 hrs by PI/Rnase staining based flow cytometry (reference value: 14.8 %); format: functional
[19] = Toxicity in BALB/c mouse xenografted with human A549 cells assessed as spleen damage at 20 mg/kg, po administered once a day and measured after 20 days by H and E staining based analysis; format: organism-based; settings: in vivo, 480 h, time 20 day
A549 [20] = assay: Inhibition of cell migration in human A549 cells incubated for 12 hrs by crystal violet staining based analysis; format: functional; settings: dose 0.5-2 µM
[21] = Acute toxicity in Sprague-Dawley rat assessed as kidney damage at 500 to 2000 mg/kg, po measured every 2 days by H and E staining based analysis; format: organism-based; settings: in vivo, 48 h, dose 500-2000 mg/kg, time 2 day
A549 [22] = assay: Induction of apoptosis in human A549 cells assessed as early apoptotic cells at 2 uM incubated for 24 hrs by Annexin V-FITC/PI staining based flow cytometry analysis (reference value: 1.73 %); format: functional
[23] = Acute toxicity in Sprague-Dawley rat assessed as spleen damage at 500 to 2000 mg/kg, po measured every 2 days by H and E staining based analysis; format: organism-based; settings: in vivo, 48 h, dose 500-2000 mg/kg, time 2 day
NCI-H1975 [24] = assay: Induction of apoptosis in human NCI-H1975 cells assessed as viable cells at 0.5 uM incubated for 24 hrs by Annexin V-FITC/PI staining based flow cytometry analysis (reference value: 90.1 %); format: functional; settings: read-out: Activity
A549 [25] = assay: Induction of apoptosis in human A549 cells assessed as late apoptotic cells at 0.5 uM incubated for 24 hrs by Annexin V-FITC/PI staining based flow cytometry analysis (reference value: 2.56 %); format: functional
BaF3 [26] = assay: Antiproliferative activity against mouse BaF3 cells harboring TPR-MET L1195V mutant incubated for 24 hrs by CCK-8 assay; format: functional, cell-based; settings: BaF3, 24 h
A549 [27] = assay: Antitumor activity against human A549 cells xenografted in BALB/c mouse assessed as tumor growth inhibition at 20 mg/kg, po administered once a day and measured up to 24 days; format: functional; settings: A549, 576 h, time <= 24 day, read-out: TGI
NCI-H1975 [28] = assay: Induction of cell cycle arrest in human NCI-H1975 cells assessed as accumulation of cells at G1 phase at 2 uM measured for 24 hrs by PI/Rnase staining based flow cytometry (reference value: 79.2 %); format: functional
[29] = Toxicity in BALB/c mouse xenografted with human A549 cells assessed as liver damage at 40 mg/kg, po administered once a day and measured after 20 days by H and E staining based analysis; format: organism-based; settings: in vivo, 480 h, time 20 day
[30] = Toxicity in BALB/c mouse xenografted with human A549 cells assessed as lung damage at 40 mg/kg, po administered once a day and measured after 20 days by H and E staining based analysis; format: organism-based; settings: in vivo, 480 h, time 20 day
NCI-H1975 [31] = assay: Induction of apoptosis in human NCI-H1975 cells assessed as early apoptotic cells at 2 uM incubated for 24 hrs by Annexin V-FITC/PI staining based flow cytometry analysis (reference value: 0.35 %); format: functional
A549 [32] = assay: Antiproliferative activity against human A549 cells assessed as inhibition of cell growth incubated for 3 days by CCK-8 assay; format: functional, cell-based; settings: time 3.0 day
NCI-H1975 [33] = assay: Induction of apoptosis in human NCI-H1975 cells assessed as early apoptotic cells at 1 uM incubated for 24 hrs by Annexin V-FITC/PI staining based flow cytometry analysis (reference value: 0.35 %); format: functional
Quadruplex DNA [34] = assay: Binding affinity to c-MET G4-quadruplex DNA (unknown origin) assessed as dissociation constant by MST assay; format: nucleic-acid assay
A549 [35] = assay: Antiproliferative activity against MET knockdown human A549 cells assessed as inhibition of cell growth by CCK-8 assay; format: functional, cell-based

## COc1cccc(-c2ccc(-c3nc4c5cccnc5c5ncccc5c4[nH]3)o2)c1
[1]
  Activity: Non-toxic
[2]
  Activity: Non-toxic
A549 [3]
  viability at 1 µM: 74%
A549 [4]
  Activity: 77.2%
NCI-H1975 [5]
  Activity: 80.5%
NCI-H1975 [6]
  Activity: Active
[7]
  Activity: Non-toxic
NCI-H1975 [8]
  Activity: 8.12%
BaF3 [9]
  IC50: 400 nM
A549 [10]
  Activity: 9.06%
Quadruplex DNA [11]
  ΔTm: 10.8 °C
[12]
  Activity: Non-toxic
A549 [13]
  Activity: 83.9%
A549 [14]
  Activity: Dose-dependent-effect
[15]
  Activity: Non-toxic
NCI-H1975 [16]
  Activity: Active
NCI-H1975 [17]
  Activity: 4.06%
NCI-H1975 [18]
  Activity: 11.5%
[19]
  Activity: Non-toxic
A549 [20]
  inhibition: Dose-dependent-effect
[21]
  Activity: Non-toxic
A549 [22]
  Activity: 12.2%
[23]
  Activity: Non-toxic
NCI-H1975 [24]
  viability at 0.5 µM: 85.1%
A549 [25]
  Activity: 7.9%
BaF3 [26]
  IC50: 510 nM
A549 [27]
  inhibition in vivo at 20 mg/kg: 43%
NCI-H1975 [28]
  Activity: 84.2%
[29]
  Activity: Non-toxic
[30]
  Activity: Non-toxic
NCI-H1975 [31]
  Activity: 2.21%
A549 [32]
  Activity: Active
NCI-H1975 [33]
  Activity: 2.2%
Quadruplex DNA [34]
  Kd: 73.5 nM
A549 [35]
  Activity: Active
